According to patent US9790178B2, “Pyrrolidinyl urea, thiourea, guanidine and cyanoguanidine compounds as TrkA kinase inhibitors” (Array BioPharma Inc., priority 2012, dated 2017):

What was measured:
Experiment in all cases: KinaseProfiler off-target kinase profiling
Assay type in all cases: biochemical
Details in all cases: 10 μM, ATP near Km
[1] = biological target: T1, IR (Homo sapiens, UniProt P06213)
T1 construct: purchased Millipore, Inc. (KinaseProfiler service)
How it was run: (§1)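 First, ATP was adjusted to roughly the Km of every kinase in the panel. The compound was then added at 10 μM, each well run twice, and activity was expressed relative to control and averaged.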

[2] = biological target: T2, MRCKbeta (Homo sapiens, UniProt Q9Y5S2)
T2 construct: purchased Millipore, Inc. (KinaseProfiler service)
How it was run: as §1

[3] = biological target: T3, CAMK2b (Homo sapiens, UniProt Q13554)
T3 construct: purchased Millipore, Inc. (KinaseProfiler service)
How it was run: as §1

[4] = biological target: T4, PKAC-alpha (Homo sapiens, UniProt P17612)
T4 construct: purchased Millipore, Inc. (KinaseProfiler service)
How it was run: as §1

[5] = biological target: T5, TrkB (Homo sapiens, UniProt Q16620)
T5 construct: purchased Millipore, Inc. (KinaseProfiler service)
How it was run: as §1

[6] = biological target: T6, Abl2 (Homo sapiens, UniProt P42684)
T6 construct: purchased Millipore, Inc. (KinaseProfiler service)
How it was run: as §1

[7] = biological target: T7, PKD2 (Homo sapiens, UniProt Q9BZL6)
T7 construct: purchased Millipore (KinaseProfiler service)
T7 sequence (Q9BZL6 whole entry): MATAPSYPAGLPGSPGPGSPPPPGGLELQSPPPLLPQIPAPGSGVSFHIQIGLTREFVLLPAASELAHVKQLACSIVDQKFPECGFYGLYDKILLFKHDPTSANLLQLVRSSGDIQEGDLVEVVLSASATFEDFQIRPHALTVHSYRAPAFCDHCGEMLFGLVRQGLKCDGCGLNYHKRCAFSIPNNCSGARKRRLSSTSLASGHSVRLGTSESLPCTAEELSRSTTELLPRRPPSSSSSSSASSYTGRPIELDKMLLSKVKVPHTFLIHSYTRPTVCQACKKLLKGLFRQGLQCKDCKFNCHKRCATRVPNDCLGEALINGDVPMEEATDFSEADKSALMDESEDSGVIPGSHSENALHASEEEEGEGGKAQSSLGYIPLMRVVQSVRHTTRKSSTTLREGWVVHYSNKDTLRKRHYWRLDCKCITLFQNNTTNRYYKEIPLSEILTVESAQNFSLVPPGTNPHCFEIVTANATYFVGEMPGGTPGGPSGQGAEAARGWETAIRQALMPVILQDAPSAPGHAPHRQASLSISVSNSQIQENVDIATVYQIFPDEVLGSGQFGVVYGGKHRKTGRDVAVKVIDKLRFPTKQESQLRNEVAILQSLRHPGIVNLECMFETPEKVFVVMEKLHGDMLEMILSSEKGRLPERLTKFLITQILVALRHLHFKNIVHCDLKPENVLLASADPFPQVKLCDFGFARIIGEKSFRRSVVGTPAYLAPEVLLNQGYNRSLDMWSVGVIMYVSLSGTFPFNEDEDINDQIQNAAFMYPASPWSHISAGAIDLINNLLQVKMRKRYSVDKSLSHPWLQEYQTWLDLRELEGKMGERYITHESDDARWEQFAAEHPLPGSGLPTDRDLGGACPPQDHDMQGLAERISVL
How it was run: as §1

[8] = biological target: T8, HIPK1 (Homo sapiens, UniProt Q86Z02)
T8 construct: purchased Millipore, Inc. (KinaseProfiler service)
How it was run: as §1

[9] = biological target: T9, EphA8 (Homo sapiens, UniProt P29322)
T9 construct: purchased Millipore, Inc. (KinaseProfiler service)
How it was run: as §1

[10] = biological target: T10, EphB4 (Homo sapiens, UniProt P54760)
T10 construct: purchased Millipore, Inc. (KinaseProfiler service)
How it was run: as §1

[11] = biological target: T11, MSK2 (Homo sapiens, UniProt O75676)
T11 construct: purchased Millipore, Inc. (KinaseProfiler service)
How it was run: as §1

[12] = biological target: T12, p38alpha (Homo sapiens, UniProt Q16539)
T12 construct: purchased Millipore, Inc. (KinaseProfiler service)
How it was run: as §1

[13] = biological target: T13, Plk3 (Homo sapiens, UniProt Q9H4B4)
T13 construct: purchased Millipore (KinaseProfiler service)
How it was run: as §1

[14] = biological target: T14, MAP4K2 (Homo sapiens, UniProt Q12851)
T14 construct: purchased Millipore, Inc. (KinaseProfiler service)
How it was run: as §1

[15] = biological target: T15, Fgr (Homo sapiens, UniProt P09769)
T15 construct: purchased Millipore, Inc. (KinaseProfiler service)
How it was run: as §1

[16] = biological target: T16, CDK5/p25 (Homo sapiens, UniProt Q00535)
T16 construct: purchased Millipore, Inc. (KinaseProfiler service)
How it was run: as §1

[17] = biological target: T17, CAMK2d (Homo sapiens, UniProt Q13557)
T17 construct: purchased Millipore, Inc. (KinaseProfiler service)
How it was run: as §1

[18] = biological target: T18, SIK (Homo sapiens, UniProt P57059)
T18 construct: purchased Millipore, Inc. (KinaseProfiler service)
T18 sequence (P57059 whole entry): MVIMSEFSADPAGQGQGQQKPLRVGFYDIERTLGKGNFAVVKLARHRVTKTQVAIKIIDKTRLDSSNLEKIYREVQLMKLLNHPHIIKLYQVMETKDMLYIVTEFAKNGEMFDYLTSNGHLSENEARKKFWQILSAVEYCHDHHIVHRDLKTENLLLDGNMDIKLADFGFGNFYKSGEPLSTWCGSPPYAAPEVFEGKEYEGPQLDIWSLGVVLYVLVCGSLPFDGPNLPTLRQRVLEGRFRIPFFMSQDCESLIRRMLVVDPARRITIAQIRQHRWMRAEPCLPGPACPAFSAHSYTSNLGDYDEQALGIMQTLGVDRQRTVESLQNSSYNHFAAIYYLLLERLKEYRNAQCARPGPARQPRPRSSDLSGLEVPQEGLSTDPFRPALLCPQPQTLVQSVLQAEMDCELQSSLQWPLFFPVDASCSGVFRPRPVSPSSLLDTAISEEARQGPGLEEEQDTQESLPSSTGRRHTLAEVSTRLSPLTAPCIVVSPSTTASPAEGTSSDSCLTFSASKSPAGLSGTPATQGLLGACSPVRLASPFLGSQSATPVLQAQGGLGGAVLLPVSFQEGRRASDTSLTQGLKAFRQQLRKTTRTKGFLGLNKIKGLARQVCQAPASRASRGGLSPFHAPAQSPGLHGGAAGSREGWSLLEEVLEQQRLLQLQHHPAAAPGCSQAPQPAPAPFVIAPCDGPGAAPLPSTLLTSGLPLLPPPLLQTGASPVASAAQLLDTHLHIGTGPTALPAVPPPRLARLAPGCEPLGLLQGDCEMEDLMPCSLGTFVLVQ
How it was run: as §1

[19] = biological target: T19, Pim-2 (Homo sapiens, UniProt Q9P1W9)
T19 construct: purchased Millipore, Inc. (KinaseProfiler service)
How it was run: as §1

[20] = biological target: T20, Rse (Homo sapiens, UniProt Q06418)
T20 construct: purchased Millipore (KinaseProfiler service)
How it was run: as §1

[21] = biological target: T21, Hck (Homo sapiens, UniProt P08631)
T21 construct: purchased Millipore, Inc. (KinaseProfiler service)
How it was run: as §1

[22] = biological target: T22, MLK1 (Homo sapiens, UniProt P80192)
T22 construct: purchased Millipore, Inc. (KinaseProfiler service)
T22 sequence (P80192 whole entry): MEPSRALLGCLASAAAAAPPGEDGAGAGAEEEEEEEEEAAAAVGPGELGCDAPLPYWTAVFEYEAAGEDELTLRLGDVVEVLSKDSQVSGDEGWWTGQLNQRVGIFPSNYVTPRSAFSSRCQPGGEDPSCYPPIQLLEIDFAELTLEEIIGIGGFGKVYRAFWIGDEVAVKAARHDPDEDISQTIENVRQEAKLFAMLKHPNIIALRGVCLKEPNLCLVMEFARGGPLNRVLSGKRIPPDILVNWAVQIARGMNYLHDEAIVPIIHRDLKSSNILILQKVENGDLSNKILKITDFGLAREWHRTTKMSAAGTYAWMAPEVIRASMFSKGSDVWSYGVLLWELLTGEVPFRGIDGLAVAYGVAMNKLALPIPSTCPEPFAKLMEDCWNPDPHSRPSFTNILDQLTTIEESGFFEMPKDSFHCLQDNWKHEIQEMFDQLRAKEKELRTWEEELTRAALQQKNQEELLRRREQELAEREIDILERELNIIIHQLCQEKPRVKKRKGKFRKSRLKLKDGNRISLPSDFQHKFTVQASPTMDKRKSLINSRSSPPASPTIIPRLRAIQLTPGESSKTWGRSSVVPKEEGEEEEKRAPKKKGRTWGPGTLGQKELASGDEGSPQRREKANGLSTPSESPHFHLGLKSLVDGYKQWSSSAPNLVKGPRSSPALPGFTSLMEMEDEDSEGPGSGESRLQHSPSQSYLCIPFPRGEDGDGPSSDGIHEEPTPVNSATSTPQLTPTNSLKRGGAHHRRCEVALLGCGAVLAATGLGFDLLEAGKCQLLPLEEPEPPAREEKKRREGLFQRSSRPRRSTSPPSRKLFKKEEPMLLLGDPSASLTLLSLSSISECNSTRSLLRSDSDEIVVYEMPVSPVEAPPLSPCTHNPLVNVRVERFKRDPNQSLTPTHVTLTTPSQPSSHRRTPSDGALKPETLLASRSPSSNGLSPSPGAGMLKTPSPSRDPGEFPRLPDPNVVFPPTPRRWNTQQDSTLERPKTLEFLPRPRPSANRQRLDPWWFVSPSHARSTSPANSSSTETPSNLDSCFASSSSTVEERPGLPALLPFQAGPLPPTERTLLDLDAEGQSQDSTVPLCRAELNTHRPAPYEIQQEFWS
How it was run: as §1

[23] = biological target: T23, Ros (Homo sapiens, UniProt P08922)
T23 construct: purchased Millipore (KinaseProfiler service)
How it was run: as §1

[24] = biological target: T24, ErbB4 (Homo sapiens, UniProt Q15303)
T24 construct: purchased Millipore, Inc. (KinaseProfiler service)
How it was run: as §1

[25] = biological target: T25, WNK3 (Homo sapiens, UniProt Q9BYP7)
T25 construct: purchased Millipore, Inc. (KinaseProfiler service)
How it was run: as §1

[26] = tested on: CK1_y
How it was run: as §1

[27] = biological target: T26, Bmx (Homo sapiens, UniProt P51813)
T26 construct: purchased Millipore, Inc. (KinaseProfiler service)
How it was run: as §1

[28] = biological target: T27, CAMK1d (Homo sapiens, UniProt Q8IU85)
T27 construct: purchased Millipore, Inc. (KinaseProfiler service)
How it was run: as §1

[29] = biological target: T28, KDR (Homo sapiens, UniProt P35968)
T28 construct: purchased Millipore, Inc. (KinaseProfiler service)
T28 sequence (P35968 20-1356): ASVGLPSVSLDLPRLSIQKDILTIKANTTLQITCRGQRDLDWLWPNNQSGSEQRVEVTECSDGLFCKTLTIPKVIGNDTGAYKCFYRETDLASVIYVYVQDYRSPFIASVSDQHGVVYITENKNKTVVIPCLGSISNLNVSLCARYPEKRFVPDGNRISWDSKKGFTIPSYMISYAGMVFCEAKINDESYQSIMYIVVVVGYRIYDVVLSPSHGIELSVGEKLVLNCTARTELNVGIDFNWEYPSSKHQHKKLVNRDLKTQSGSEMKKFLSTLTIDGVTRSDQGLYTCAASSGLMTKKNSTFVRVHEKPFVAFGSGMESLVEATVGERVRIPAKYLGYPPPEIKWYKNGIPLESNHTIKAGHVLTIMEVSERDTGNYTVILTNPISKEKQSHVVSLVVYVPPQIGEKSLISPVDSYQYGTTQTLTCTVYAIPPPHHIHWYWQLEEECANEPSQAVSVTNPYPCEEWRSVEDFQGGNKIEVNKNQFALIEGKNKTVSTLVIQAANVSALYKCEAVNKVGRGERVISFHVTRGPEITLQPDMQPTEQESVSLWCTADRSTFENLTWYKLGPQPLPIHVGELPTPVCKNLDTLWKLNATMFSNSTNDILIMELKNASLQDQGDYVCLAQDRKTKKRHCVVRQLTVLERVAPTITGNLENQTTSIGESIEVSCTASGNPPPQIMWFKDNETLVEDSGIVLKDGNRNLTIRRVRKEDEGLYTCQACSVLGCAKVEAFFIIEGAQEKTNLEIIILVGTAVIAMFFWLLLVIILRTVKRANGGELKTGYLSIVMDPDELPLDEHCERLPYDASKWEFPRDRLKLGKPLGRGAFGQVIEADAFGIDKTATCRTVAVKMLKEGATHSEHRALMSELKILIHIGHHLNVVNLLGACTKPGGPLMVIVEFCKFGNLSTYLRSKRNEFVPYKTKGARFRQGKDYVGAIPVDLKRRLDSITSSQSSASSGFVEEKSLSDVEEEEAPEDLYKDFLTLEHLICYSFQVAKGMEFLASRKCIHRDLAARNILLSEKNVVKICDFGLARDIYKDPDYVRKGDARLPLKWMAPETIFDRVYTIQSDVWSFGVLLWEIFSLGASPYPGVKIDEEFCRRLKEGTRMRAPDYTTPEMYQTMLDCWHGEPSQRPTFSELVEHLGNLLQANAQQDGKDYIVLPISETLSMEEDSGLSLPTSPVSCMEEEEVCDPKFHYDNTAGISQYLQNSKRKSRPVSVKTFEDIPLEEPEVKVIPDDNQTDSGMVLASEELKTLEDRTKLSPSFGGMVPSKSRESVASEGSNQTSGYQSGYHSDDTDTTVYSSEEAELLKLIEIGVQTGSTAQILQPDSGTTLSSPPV
How it was run: as §1

[30] = biological target: T29, TAO3 (Homo sapiens, UniProt Q9H2K8)
T29 construct: purchased Millipore, Inc. (KinaseProfiler service)
How it was run: as §1

[31] = biological target: T30, ZAP-70 (Homo sapiens, UniProt P43403)
T30 construct: purchased Millipore, Inc. (KinaseProfiler service)
How it was run: as §1

[32] = biological target: T31, HIPK3 (Homo sapiens, UniProt Q9H422)
T31 construct: purchased Millipore, Inc. (KinaseProfiler service)
How it was run: as §1

[33] = biological target: T32, p38beta (Homo sapiens, UniProt Q15759)
T32 construct: purchased Millipore, Inc. (KinaseProfiler service)
T32 sequence (Q15759 whole entry): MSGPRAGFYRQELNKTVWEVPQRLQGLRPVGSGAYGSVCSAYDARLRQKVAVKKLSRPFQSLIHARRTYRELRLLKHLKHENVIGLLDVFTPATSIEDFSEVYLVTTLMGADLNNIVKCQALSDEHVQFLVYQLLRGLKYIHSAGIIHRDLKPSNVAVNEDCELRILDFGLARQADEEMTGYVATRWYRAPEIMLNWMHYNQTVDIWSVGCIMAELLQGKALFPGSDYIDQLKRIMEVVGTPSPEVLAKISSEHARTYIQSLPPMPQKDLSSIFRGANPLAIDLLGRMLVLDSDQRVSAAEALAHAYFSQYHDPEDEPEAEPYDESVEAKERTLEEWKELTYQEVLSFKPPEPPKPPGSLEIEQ
How it was run: as §1

[34] = biological target: T33, PKCiota (Homo sapiens, UniProt P41743)
T33 construct: purchased Millipore (KinaseProfiler service)
How it was run: as §1

[35] = biological target: T34, CK1gamma1 (Homo sapiens, UniProt Q9HCP0)
T34 construct: purchased Millipore, Inc. (KinaseProfiler service)
How it was run: as §1

[36] = biological target: T35, Mer (Homo sapiens, UniProt Q12866)
T35 construct: purchased Millipore, Inc. (KinaseProfiler service)
How it was run: as §1

[37] = biological target: T36, DYRK2 (Homo sapiens, UniProt Q92630)
T36 construct: purchased Millipore, Inc. (KinaseProfiler service)
How it was run: as §1

[38] = biological target: T37, MAPKAP-K2 (Homo sapiens, UniProt P49137)
T37 construct: purchased Millipore, Inc. (KinaseProfiler service)
How it was run: as §1

[39] = biological target: T38, PDGFRalpha (Homo sapiens, UniProt P16234)
T38 construct: purchased Millipore, Inc. (KinaseProfiler service)
How it was run: as §1

[40] = biological target: T39, Fer (Homo sapiens, UniProt P16591)
T39 construct: purchased Millipore, Inc. (KinaseProfiler service)
How it was run: as §1

[41] = biological target: T40, p70S6K (Homo sapiens, UniProt P23443)
T40 construct: purchased Millipore, Inc. (KinaseProfiler service)
T40 sequence (P23443 whole entry): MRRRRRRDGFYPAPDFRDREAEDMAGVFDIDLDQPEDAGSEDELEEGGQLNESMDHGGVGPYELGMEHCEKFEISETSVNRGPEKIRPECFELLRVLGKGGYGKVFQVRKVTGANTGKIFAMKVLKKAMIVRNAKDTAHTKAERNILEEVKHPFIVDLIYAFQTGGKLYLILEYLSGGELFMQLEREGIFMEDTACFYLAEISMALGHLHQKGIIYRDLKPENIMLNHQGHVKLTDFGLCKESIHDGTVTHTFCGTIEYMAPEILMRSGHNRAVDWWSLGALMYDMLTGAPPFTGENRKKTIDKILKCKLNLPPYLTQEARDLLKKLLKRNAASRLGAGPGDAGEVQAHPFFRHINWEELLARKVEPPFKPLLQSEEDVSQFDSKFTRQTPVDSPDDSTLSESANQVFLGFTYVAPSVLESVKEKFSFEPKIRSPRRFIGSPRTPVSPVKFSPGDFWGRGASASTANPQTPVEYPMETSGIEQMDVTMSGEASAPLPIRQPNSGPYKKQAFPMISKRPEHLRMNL
How it was run: as §1

- Avg. POC [1]: 87.5 POC
- Avg. POC [2]: 118.5 POC
- Avg. POC [3]: 102 POC
- Avg. POC [4]: 114 POC
- Avg. POC [5]: 0.5 POC
- Avg. POC [6]: 112.5 POC
- Avg. POC [7]: 113.5 POC
- Avg. POC [8]: 111 POC
- Avg. POC [9]: 98.5 POC
- Avg. POC [10]: 102 POC
- Avg. POC [11]: 126 POC
- Avg. POC [12]: 97.5 POC
- Avg. POC [13]: 99.5 POC
- Avg. POC [14]: 112 POC
- Avg. POC [15]: 121 POC
- Avg. POC [16]: 111 POC
- Avg. POC [17]: 102 POC
- Avg. POC [18]: 97.5 POC
- Avg. POC [19]: 122.5 POC
- Avg. POC [20]: 102.5 POC
- Avg. POC [21]: 110 POC
- Avg. POC [22]: 100 POC
- Avg. POC [23]: 95.5 POC
- Avg. POC [24]: 97.5 POC
- Avg. POC [25]: 115.5 POC
- Avg. POC [26]: 104 POC
- Avg. POC [27]: 103.5 POC
- Avg. POC [28]: 107.5 POC
- Avg. POC [29]: 107 POC
- Avg. POC [30]: 103 POC
- Avg. POC [31]: 102.5 POC
- Avg. POC [32]: 105.5 POC
- Avg. POC [33]: 98.5 POC
- Avg. POC [34]: 101.5 POC
- Avg. POC [35]: 109 POC
- Avg. POC [36]: 116.5 POC
- Avg. POC [37]: 85.5 POC
- Avg. POC [38]: 106.5 POC
- Avg. POC [39]: 105.5 POC
- Avg. POC [40]: 91.5 POC
- Avg. POC [41]: 112 POC
Structure (SMILES): COCCN1C[C@@H](NC(=O)Nc2c(-c3ccccc3)nc3c(C)nccn23)[C@H](c2ccc(F)c(F)c2)C1 [Example 20, 1-((3S,4R)-4-(3,4-difluorophenyl)-1-(2-methoxyethyl)pyrrolidin-3-yl)-3-(8-methyl-2-phenylimidazo[1,2-a]pyrazin-3-yl)urea]
